Measurements as given in US20240400986A1, “MEMBRANE BOUND COMPOSITIONS AND METHODS RELATING TO SAME” (FLAGSHIP PIONEERING INNOVATIONS VII, LLC, priority 2021, published 2024).
Where a name gives a salt, the structure may show the parent alone. Read-outs that look alike come from different tables or passages of the source.

Tests used:
[1] = tested on: cardiomyocytic cell line derived from human ventricular heart tissue; assay: Cell viability in cardiomyocyte compound screen (CellTiter-Glo); assay type: cell-based
Excerpt: Cells were stained with Hoechst 34580, CellTracker Green/CellMask Green Actin and MitoTracker Deep Red to detect nuclear material, cytoplasm/F-actin, and mitochondria, respectively, and cultured in poly-L-lysine-coated 96-well glass bottom plates at 15,800 cells/cm^2 and allowed to adhere overnight. For the screening, a total of 100 randomly organized compounds (TargetMol) were divided in 5 groups. Each group included an untreated condition, a vehicular DMSO control, and a known high-gigasome producing condition to comparatively study gigasome production rates. As a cell death control group, 500 nM Staurosporine was added to induce apoptosis. Cultures were incubated for 24 hours under gigasome inducing conditions at concentrations ranging between 10 nM and 10,000 nM. […] Cells remaining in the 96-well plates were assessed for viability using CellTiter-Glo (Promega).

[2] = tested on: neuronal cell line derived from human neuroblastoma
Description: For the screening, a total of 99 compounds (TargetMol) were divided in 5 groups. Each group included an untreated condition, a vehicular DMSO control, and a known high-gigasome producing condition to comparatively study gigasome production rates. As a cell death control group, 500 nM Staurosporine was added to induce apoptosis. Cultures were incubated for 24 hours under gigasome inducing conditions at concentrations ranging between 10 nM and 10,000 nM. Before the end of the treatment, live neuronal cultures were imaged. The Zeiss ZEN Blue software was used to distribute imaging fields of view (positions) to create an unbiased imaging sample of a well. 5 images were taken using a Zeiss LSM 900 confocal microscope. […] The BioApps ZEN software package was used to perform cell nucleus segmentation and counting. After 24 hours, gigasomes were harvested from the cell culture media by gently removing from the top of each 96-well ⅔ of the total volume without disturbing the cell layer (containing the settled gigasomes) and by adding to each well the same amount of PBS. […] Cells remaining in the 96-well plates were assessed for viability using CellTiter-Glo (Promega).

[3] = tested on: neuronal cell line derived from human neuroblastoma; assay: Small molecule compound screen of gigasome production in neuronal monocultures; details: for Fold Change of Gigasomes Produced vs. DMSO / Number of Gigasomes Produced: neuronal cells, 24 hours
[4] = tested on: cardiomyocytic cell line derived from human ventricular heart tissue; assay: Small molecule compound screen of gigasome production in cardiomyocytic monocultures;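 for all read-outs here: gigasomes shed into the culture medium were imaged by confocal microscopy and counted as round particles lacking nuclear signal, extrapolated to the whole well, fold change is relative to DMSO vehicle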; details: for Fold Change of Gigasomes Produced vs. DMSO / Number of Gigasomes Produced: cardiomyocytes; for fold induction at 0.1 µM / fold induction at 0.01 µM / fold induction at 1 µM / fold induction at 10 µM: Homo sapiens, Cardiomyocyte, 24 h, read-out: Fold Change of Gigasomes Produced vs. DMSO
[5] = Table 22, dose 100 nM, cardiomyocytes, 24 hours
[6] = neuronal cells, dose 10 nM, 24 hours
[7] = neuronal cells, dose 100 nM, 24 hours
[8] = neuronal cells, dose 1000 nM, 24 hours
[9] = Table 22, dose 100 nM, 24 hours
[10] = neuronal cells, dose 10000 nM, 24 hours
[11] = Table 22, dose 1000 nM, 24 hours
[12] = Table 22, dose 10000 nM, 24 hours
[13] = Homo sapiens, 24 h, read-out: Fold Change of Gigasomes Produced vs. DMSO
[14] = Table 23 (down-regulators), dose 10 nM, cardiomyocytes
[15] = Table 23 (down-regulators), dose 100 nM, cardiomyocytes
[16] = Table 23 (down-regulators), dose 1000 nM, cardiomyocytes
[17] = Table 23 (down-regulators), dose 10000 nM, cardiomyocytes
[18] = Table 23 (down-regulators), dose 10 nM
[19] = Table 23 (down-regulators), dose 100 nM
[20] = Table 23 (down-regulators), dose 1000 nM
[21] = Table 23 (down-regulators), dose 10000 nM

With COc1ccc(C[C@H]2NC[C@H](O)[C@H]2OC(C)=O)cc1 [Anisomycin] the Viability [1, 5] was 50-75%, the Viability [2, 6] was 100% and the Viability [2, 7] was >75%. For the same compound, the Viability [2, 8] was 50-75%, the “Fold Change of Gigasomes Produced vs. DMSO” value (shortened to “Fold Change”) ([3]; dose 10 nM) was 1.0-1.25 and the “Number of Gigasomes Produced” value ([3]; dose 10 nM) was <35. The “Fold Change” value ([3]; dose 100 nM) was 1.75-2.0, the “Number of Gigasomes Produced” value ([3]; dose 100 nM) was 65-75 and the “Fold Change” value ([3]; dose 1000 nM) was 1.75-2.0. For the same compound, the “Number of Gigasomes Produced” value ([3]; dose 1000 nM) was 65-75, the “Fold Change” value [4, 9] was 1.25-1.5 and the “Number of Gigasomes Produced” value [4, 9] was 150-175.
With CO/C1=C\C(C)=C\[C@@H](C)[C@@H](O)[C@@H](C)C/C(C)=C/C=C/[C@H](OC)[C@@H]([C@@H](C)[C@@H](O)[C@H](C)[C@@]2(O)C[C@@H](O)[C@H](C)[C@@H](C(C)C)O2)OC1=O [Bafilomycin A1, reference compound] the Viability [1, 5] was >75%, the Viability ([1]; Table 22, dose 1000 nM, cardiomyocytes, 24 hours) was >75% and the Viability ([1]; Table 22, dose 10000 nM, cardiomyocytes, 24 hours) was >75%. For the same compound, the Viability [2, 6] was >75%, the Viability [2, 7] was 100% and the Viability [2, 8] was >75%. For the same compound, the Viability [2, 10] was >75%, the “Fold Change” value ([3]; dose 10 nM) was 1.75-2.0 and the “Number of Gigasomes Produced” value ([3]; dose 10 nM) was 85-95. The “Fold Change” value ([3]; dose 100 nM) was 2.0-3.0, the “Number of Gigasomes Produced” value ([3]; dose 100 nM) was 105-115 and the “Fold Change” value ([3]; dose 1000 nM) was 2.0-3.0. The “Number of Gigasomes Produced” value ([3]; dose 1000 nM) was >115, the “Fold Change” value ([3]; dose 10000 nM) was 3.0-4.0 and the “Number of Gigasomes Produced” value ([3]; dose 10000 nM) was >115. The “Fold Change” value [4, 9] was 1.5-1.75, the “Number of Gigasomes Produced” value [4, 9] was 225-250 and the “Fold Change” value [4, 11] was 1.75-2.0. For the same compound, the “Number of Gigasomes Produced” value [4, 11] was 250-275, the “Fold Change” value [4, 12] was 1.75-2.0 and the “Number of Gigasomes Produced” value [4, 12] was 250-275.
C=C(C)[C@@H]1CC[C@]2(CO)CC[C@]3(C)[C@H](CC[C@@H]4[C@@]5(C)CC[C@H](O)C(C)(C)[C@@H]5CC[C@]43C)[C@@H]12 [Betulin] gave a Viability [1, 5] of 100%, a Viability [2, 6] of 100% and a Viability [2, 10] of 100%. For the same compound, the fold induction at 0.01 µM [3, 13] was 1.25 to 1.5, the fold induction at 10 µM [3, 13] was 1 to 1.25 and the “Number of Gigasomes Produced” value ([3]; dose 10 nM) was 45-55. For the same compound, the “Number of Gigasomes Produced” value ([3]; dose 10000 nM) was 35-45, the fold induction at 0.1 µM [4] was 1.5 to 1.75 and the “Number of Gigasomes Produced” value [4, 9] was 175-200.
In the case of C[C@H]1CCC/C=C/[C@@H]2C[C@H](O)C[C@H]2[C@H](O)/C=C/C(=O)O1 [Brefeldin A], the Viability ([1]; Table 22, dose 10 nM, cardiomyocytes, 24 hours) is reported as >75%, the Viability [2, 6] is reported as 100% and the “Fold Change” value ([3]; dose 10 nM) is reported as 1.5-1.75. The “Number of Gigasomes Produced” value ([3]; dose 10 nM) was 45-55, the “Fold Change” value ([4]; Table 22, dose 10 nM, 24 hours) was 1.25-1.5 and the “Number of Gigasomes Produced” value ([4]; Table 22, dose 10 nM, 24 hours) was 250-275.
In the case of Cn1cnc(N)c2ncnc1-2 [Compound 3-Methyladenine, 3-Methyladenine], the Viability [1, 14] is reported as >75%, the Viability [1, 15] is reported as >75% and the Viability [1, 16] is reported as >75%. The Viability [1, 17] was >75%, the Viability [2, 6] was 100% and the Viability [2, 7] was 100%. The Viability [2, 8] was 100%, the fold induction at 0.01 µM [3, 13] was 1.5 to 1.75 and the fold induction at 0.1 µM [3, 13] was 1.5 to 1.75. For the same compound, the fold induction at 1 µM [3, 13] was 1.25 to 1.5, the “Number of Gigasomes Produced” value ([3]; dose 10 nM) was 45-55 and the “Number of Gigasomes Produced” value ([3]; dose 100 nM) was 45-55. The “Number of Gigasomes Produced” value ([3]; dose 1000 nM) was 35-45, the fold induction at 0.01 µM [4] was 1.25 to 1.5 and the fold induction at 0.1 µM [4] was 1.25 to 1.5. The fold induction at 1 µM [4] was 0.75 to 1, the fold induction at 10 µM [4] was 0.5 to 0.75 and the “Number of Gigasomes Produced” value [4, 18] was >150. For the same compound, the “Number of Gigasomes Produced” value [4, 19] was >150, the “Number of Gigasomes Produced” value [4, 20] was 120-135 and the “Number of Gigasomes Produced” value [4, 21] was 90-105.
In the case of CN(C)CCCSC(=N)N [Dimaprit dihydrochloride], the Viability [1, 14] is reported as 100.0%, the Viability [1, 15] is reported as 100.0% and the Viability [1, 16] is reported as >75%. It also gave a Viability [1, 17] of 100.0%, a fold induction at 0.01 µM [4] of 0.75 to 1 and a fold induction at 0.1 µM [4] of 0.75 to 1. The fold induction at 1 µM [4] was 0.5 to 0.75, the fold induction at 10 µM [4] was 0.25 to 0.5 and the “Number of Gigasomes Produced” value [4, 18] was 90-105. The “Number of Gigasomes Produced” value [4, 19] was 75-90, the “Number of Gigasomes Produced” value [4, 20] was 50-75 and the “Number of Gigasomes Produced” value [4, 21] was 50-75.
Nc1ccccc1NC(=O)c1ccc(CNC(=O)OCc2cccnc2)cc1 [Entinostat, reference compound] was tested, and the Viability ([1]; human, 24 h, 100 nM) was >75%, the Viability ([2]; human, 24 h, 10000 nM) was >75% and the fold induction at 10 µM [3, 13] was 1.25 to 1.5. For the same compound, the “Number of Gigasomes Produced” value ([3]; dose 10000 nM) was 35-45, the fold induction at 0.1 µM [4] was 1.75 to 2 and the “Number of Gigasomes Produced” value [4, 9] was 300-325.
For Cc1cc(C)c(S(=O)(=O)N(Cc2ccc(-c3cccc(S(C)(=O)=O)c3)cc2)Cc2ccc(C(F)(F)F)o2)c(C)c1 [GSK2033], the Viability ([1]; human, 24 h, 10000 nM) was 100%, the fold induction at 10 µM [4] was 1.25 to 1.5 and the “Number of Gigasomes Produced” value [4, 12] was 150-175.
For NC1=N[C@@]2(c3cc(NC(=O)c4ccc(F)cn4)ccc3F)COC[C@H]2CS1 [LY288672, reference compound], the Viability ([1]; human, 24 h, 1000 nM) was >75%, the fold induction at 1 µM [4] was 1.5 to 1.75 and the “Number of Gigasomes Produced” value [4, 11] was 175-200.
